In patent publication US12655116B2, “Substituted isophthalic acid diamides” (Bayer Aktiengesellschaft, priority 2020, dated 2026):

Columns and labels:
ABUTH [1] = experiment: Pre-emergence herbicidal action against ABUTH; format: in vivo, Abutilon theophrasti; settings: Abutilon theophrasti, 504 h; for pest or weed control at 80 g/ha: scored visually after 3 weeks vs untreated controls (100% = plants have died, 0% = like control plants); for pest or weed control at 20 g/ha: dosage 20 g/ha, scored visually after 3 weeks vs untreated controls, 100% = plants have died, 0% = like control plants, read-out: Pre-emergence action against ABUTH (herbicidal activity in percent)
Outline: (§1)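 Visual rating at 3 weeks vs untreated pots; 0–100% scale, 100% = plants died. Treatment: aqueous WP/EC spray onto covering soil, 600–800 l/ha, 0.2% wetter, seeds in sandy loam.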

ALOMY [2] = experiment: Pre-emergence herbicidal action against ALOMY; format: in vivo, Alopecurus myosuroides; settings: Alopecurus myosuroides, 504 h; 80 g/ha, pre-emergence, scored visually after 3 weeks vs untreated controls (100% = plants have died, 0% = like control plants)
Outline: as §1

AMARE [3] = experiment: Pre-emergence herbicidal action against AMARE; format: in vivo, Amaranthus retroflexus; settings: Amaranthus retroflexus, 504 h, scored visually after 3 weeks vs untreated controls, 100% = plants have died, 0% = like control plants
Outline: as §1

AVEFA [4] = experiment: Pre-emergence herbicidal action against AVEFA; format: in vivo, Avena fatua; settings: Avena fatua, 504 h, pre-emergence
Outline: as §1

ECHCG [5] = experiment: Pre-emergence herbicidal action against ECHCG; format: in vivo, Echinochloa crus-galli; settings: Echinochloa crus-galli, 504 h
Outline: as §1

LOLRI = experiment: Pre-emergence herbicidal action against LOLRI; format: in vivo, Lolium rigidum; settings: Lolium rigidum, 504 h, 80 g/ha
Outline: as §1

MATIN [6] = experiment: Pre-emergence herbicidal action against MATIN; format: in vivo, Matricaria inodora; settings: Tripleurospermum inodorum, 504 h; for pest or weed control at 20 g/ha: dosage 20 g/ha; for pest or weed control at 80 g/ha: dosage 80 g/ha
Outline: as §1

PHBPU [7] = experiment: Pre-emergence herbicidal action against PHBPU; format: in vivo, Pharbitis purpurea; settings: Ipomoea purpurea, 504 h, dosage 80 g/ha
Outline: as §1

POLCO = experiment: Pre-emergence herbicidal action against POLCO; format: in vivo, Polygonum convolvulus; settings: Fallopia convolvulus, 504 h; for pest or weed control at 80 g/ha: dosage 80 g/ha
Outline: as §1

SETVI [8] = experiment: Pre-emergence herbicidal action against SETVI; format: in vivo, Setaria viridis; settings: Setaria viridis, 504 h; for pest or weed control at 80 g/ha: dosage 80 g/ha
Outline: as §1

STEME [9] = experiment: Pre-emergence herbicidal action against STEME; format: in vivo, Stellaria media; settings: Stellaria media, 504 h
Outline: as §1

VERPE [10] = experiment: Pre-emergence herbicidal action against VERPE; format: in vivo, Veronica persica; settings: Veronica persica, 504 h, dosage 80 g/ha
Outline: as §1

VIOTR [11] = experiment: Pre-emergence herbicidal action against VIOTR; format: in vivo, Viola tricolor; settings: Viola tricolor, 504 h; for pest or weed control at 20 g/ha: dosage 20 g/ha; for pest or weed control at 80 g/ha: dosage 80 g/ha
Outline: as §1

DIGSA [12] = experiment: Pre-emergence herbicidal action against DIGSA; format: in vivo, Digitaria sanguinalis; settings: Digitaria sanguinalis, 504 h; for pest or weed control at 20 g/ha: dosage 20 g/ha; for pest or weed control at 80 g/ha: dosage 80 g/ha
Outline: as §1

ABUTH [13] = experiment: Post-emergence herbicidal action against ABUTH; format: in vivo, Abutilon theophrasti; settings: Abutilon theophrasti, 504 h, visual assessment about 3 weeks after treatment vs untreated controls; for pest or weed control at 5 g/ha: dosage 5 g/ha; for pest or weed control at 20 g/ha: dosage 20 g/ha
Outline: (§2)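 Greenhouse pot plants in sandy loam were sprayed at the one-leaf stage, 2 to 3 weeks after sowing, with WP or EC formulations as aqueous suspension or emulsion (600 to 800 l/ha water, 0.2% wetting agent). About 3 weeks later, damage was scored visually against untreated controls as % action (100% = dead, 0% = like control).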

AMARE [14] = experiment: Post-emergence herbicidal action against AMARE; format: in vivo, Amaranthus retroflexus; settings: Amaranthus retroflexus, 504 h, 20 g/ha, visual assessment about 3 weeks after treatment, 100% = plants have died, 0% = like control plants
Outline: as §2

ECHCG [15] = experiment: Post-emergence herbicidal action against ECHCG; format: in vivo, Echinochloa crus-galli; settings: Echinochloa crus-galli, 504 h; for pest or weed control at 5 g/ha: dosage 5 g/ha; for pest or weed control at 20 g/ha: dosage 20 g/ha
Outline: as §2

MATIN [16] = experiment: Post-emergence herbicidal action against MATIN; format: in vivo, Matricaria inodora; settings: Tripleurospermum inodorum, 504 h; for pest or weed control at 5 g/ha: dosage 5 g/ha; for pest or weed control at 20 g/ha: dosage 20 g/ha
Outline: as §2

PHBPU [17] = experiment: Post-emergence herbicidal action against PHBPU; format: in vivo, Pharbitis purpurea; settings: Ipomoea purpurea, 504 h; for pest or weed control at 5 g/ha: dosage 5 g/ha; for pest or weed control at 20 g/ha: dosage 20 g/ha
Outline: as §2

SETVI [18] = experiment: Post-emergence herbicidal action against SETVI; format: in vivo, Setaria viridis; settings: Setaria viridis, 504 h; for pest or weed control at 20 g/ha: dosage 20 g/ha
Outline: as §2

STEME [19] = experiment: Post-emergence herbicidal action against STEME; format: in vivo, Stellaria media; settings: Stellaria media, 504 h, 20 g/ha
Outline: as §2

VERPE [20] = experiment: Post-emergence herbicidal action against VERPE; format: in vivo, Veronica persica; settings: Veronica persica, 504 h, 20 g/ha
Outline: as §2

VIOTR [21] = experiment: Post-emergence herbicidal action against VIOTR; format: in vivo, Viola tricolor; settings: Viola tricolor, 504 h
Outline: as §2

DIGSA [22] = experiment: Post-emergence herbicidal action against DIGSA; format: in vivo, Digitaria sanguinalis; settings: Digitaria sanguinalis, 504 h
Outline: as §2

ALOMY [23] = experiment: Post-emergence herbicidal action against ALOMY; format: in vivo, Alopecurus myosuroides; settings: Alopecurus myosuroides, 504 h, dosage 20 g/ha, visual assessment about 3 weeks after treatment vs untreated controls
Outline: as §2

AVEFA [24] = experiment: Post-emergence herbicidal action against AVEFA; format: in vivo, Avena fatua; settings: Avena fatua, 504 h, 20 g/ha, visual assessment about 3 weeks after treatment, 100% = plants have died, 0% = like control plants
Outline: as §2

| Structure (SMILES) | pest or weed control at 80 g/ha (ABUTH [1]) [%] | pest or weed control at 20 g/ha (ABUTH [1]) [%] | pest or weed control at 80 g/ha (ALOMY [2]) [%] | pest or weed control at 20 g/ha (AMARE [3]) [%] | pest or weed control at 80 g/ha (AMARE [3]) [%] | pest or weed control at 80 g/ha (AVEFA [4]) [%] | pest or weed control at 80 g/ha (ECHCG [5]) [%] | pest or weed control at 80 g/ha (LOLRI) [%] | pest or weed control at 20 g/ha (MATIN [6]) [%] | pest or weed control at 80 g/ha (MATIN [6]) [%] | pest or weed control at 80 g/ha (PHBPU [7]) [%] | pest or weed control at 80 g/ha (POLCO) [%] | pest or weed control at 80 g/ha (SETVI [8]) [%] | pest or weed control at 80 g/ha (VERPE [10]) [%] | pest or weed control at 20 g/ha (VIOTR [11]) [%] | pest or weed control at 80 g/ha (VIOTR [11]) [%] | pest or weed control at 20 g/ha (DIGSA [12]) [%] | pest or weed control at 80 g/ha (DIGSA [12]) [%] | pest or weed control at 5 g/ha (ABUTH [13]) [%] | pest or weed control at 20 g/ha (ABUTH [13]) [%] | other results |
| --- | --- | --- | --- | --- | --- | --- | --- | --- | --- | --- | --- | --- | --- | --- | --- | --- | --- | --- | --- | --- | --- |
| CCNC(=O)c1c(C(F)F)ccc(C(=O)Nc2nnnn2C)c1C [Example 1-45] | 100 | 80 | 90 | 100 | 100 | 90 | 90 | 80 | 100 | 100 | 90 | 90 | 100 | 90 | 80 | 100 | 100 | 100 | 80 | 90 | pest or weed control at 20 g/ha (POLCO; dosage 20 g/ha): 90%; pest or weed control at 20 g/ha (STEME [9]; dosage 20 g/ha): 90%; pest or weed control at 80 g/ha (STEME [9]; dosage 80 g/ha): 90%; pest or weed control at 20 g/ha (AMARE [14]): 90%; pest or weed control at 5 g/ha (ECHCG [15]): 80%; pest or weed control at 20 g/ha (ECHCG [15]): 80%; pest or weed control at 5 g/ha (MATIN [16]): 80%; pest or weed control at 20 g/ha (MATIN [16]): 80%; pest or weed control at 5 g/ha (PHBPU [17]): 80%; pest or weed control at 20 g/ha (PHBPU [17]): 80%; pest or weed control at 20 g/ha (SETVI [18]): 80%; pest or weed control at 20 g/ha (STEME [19]): 80%; pest or weed control at 20 g/ha (VERPE [20]): 80%; pest or weed control at 5 g/ha (VIOTR [21]): 80%; pest or weed control at 20 g/ha (VIOTR [21]): 90%; pest or weed control at 5 g/ha (DIGSA [22]): 80%; pest or weed control at 20 g/ha (DIGSA [22]): 80% |
| CCn1nnnc1NC(=O)c1ccc(C(F)(F)F)c(C(=O)NC2CC2)c1C1CC1 [Example 2-288] | 100 | 100 | 90 | 100 | 100 | 90 | 100 | 90 | 90 | 100 | 90 | 90 | 100 | 100 | 100 | 100 | 100 | 100 | 80 | 80 | pest or weed control at 20 g/ha (AVEFA [4]; 20 g/ha, scored visually after 3 weeks, 100% = plants have died, 0% = like control plants): 80%; pest or weed control at 20 g/ha (ECHCG [5]; 20 g/ha): 90%; pest or weed control at 20 g/ha (SETVI [8]; dosage 20 g/ha): 90%; pest or weed control at 20 g/ha (ALOMY [23]): 90%; pest or weed control at 20 g/ha (AMARE [14]): 100%; pest or weed control at 20 g/ha (AVEFA [24]): 80%; pest or weed control at 5 g/ha (ECHCG [15]): 80%; pest or weed control at 20 g/ha (ECHCG [15]): 80%; pest or weed control at 5 g/ha (MATIN [16]): 80%; pest or weed control at 20 g/ha (MATIN [16]): 90%; pest or weed control at 5 g/ha (PHBPU [17]): 80%; pest or weed control at 20 g/ha (PHBPU [17]): 90%; pest or weed control at 5 g/ha (SETVI [18]; dosage 5 g/ha): 80%; pest or weed control at 20 g/ha (SETVI [18]): 90%; pest or weed control at 20 g/ha (VERPE [20]): 80%; pest or weed control at 5 g/ha (VIOTR [21]): 90%; pest or weed control at 20 g/ha (VIOTR [21]): 100%; pest or weed control at 5 g/ha (DIGSA [22]): 90%; pest or weed control at 20 g/ha (DIGSA [22]): 90% |
